According to patent publication US6846845B2, “Heat shock protein inducer” (Eisai Co., Ltd., priority 2002, dated 2005):

Tests used:
Format in all cases: in vivo, rat
PKCδ = assay: Translocation of PKCδ in particulate and cytosolic heart fractions (Western immunoblotting); conditions: 24 h after GGA 200 mg/kg oral or vehicle; chelerythrine 5 mg/kg i.v. pretreatment, FIG. 10
isolated perfused heart = assay: Isolated perfused heart experiments (Langendorff, 20 min no-flow global ischemia, 30 min reperfusion), Example 2
Procedure: Male Sprague-Dawley rats (220-250 g) were used. GGA, as an emulsion with 5% gum arabic and 0.008% tocopherol, was given orally at a dose of 200 mg/kg. Rats were classified into 4 groups. FIG. 7 is a diagrammatic representation of experimental protocol. […] Twenty-four hours after oral administration of GGA or vehicle, rats were anesthetized (sodium pentobarbital, 50 mg/kg IP) and heparinized (500 IU/kg IP). Hearts were excised, immediately frozen in liquid nitrogen, and stored at −70° C. until use for Western blot analysis (n=4 for each group). To examine the cardiac function during ischemia and reperfusion, hearts of each group were prepared for isolated perfused experiments using Langendorff apparatus (n=7-9 for each group, FIG. 7).
Twenty-four hours after administration-of 200 mg/kg of GGA or vehicle, rats of 4 groups were heparinized (500 IU/kg, IP) and anesthetized with sodium pentobarbital (50 mg/kg, IP). Each heart was isolated and perfused retrogradely using the Langendorff method with Krebs-Henseleit buffer (pH 7.4, [in mM] 118 NaCl, 4.7 KCl, 2.5 CaCl2, 1.2 MgSO4, 1.2 KH2PO4, 25.0 Na2HCO3, 11.0 glucose) equilibrated with 95% O2-5% CO2 gas mixture at 36.5° C. at a constant pressure of 75 mm Hg. A water-filled latex balloon was inserted through the mitral orifice into the left ventricle (LV) and the LV end-diastolic pressure (LVEDP) was adjusted to 0-5 mm Hg. During the initial 10 min of constant pressure perfusion, the perfusion flow rate was determined for each heart, which was then perfused at a determined perfusion rate using a microtube pump while the heart was covered with water-jacketed glassware and the relative humidity maintained at 90% or more. Normothermic no-flow global ischemia was initiated for 20 min, followed by reperfusion for 30 min. The coronary effluent during the 30 min of reperfusion period was collected for measurement of creatine kinase content (released CK).
LV pressure was monitored using a pressure transducer to obtain the peak positive and negative first derivatives of LV pressure (dP/dtmax and dP/dtmin). […] Coronary perfusion pressure (CPP) was defined as the hydraulic pressure measured at the level of aortic cannulation. LV pressure, CPP and electrocardiogram were continuously recorded on a polygraph recorder (WS-681G, Nihon Kohden) and stored on a PCM data recorder (RD-111T, TEAC) for later analysis.
Data are expressed as mean ±SEM. Serial changes in LVDP, LVEDP, CPP, and dP/dt were analyzed by two-way analysis of variance (ANOVA) followed by the Bonferroni/Dunn test, unless otherwise specified. Comparisons among groups with respect to the hemodynamic parameters at baseline and the ratio of released CK to ventricular weight were analyzed by one-way ANOVA followed by the Bonferroni/Dunn test. […]

[1] = system: heat shock factor 1 (HSF1); assay: HSF1 phosphorylation and translocation in cytosolic and nuclear heart fractions (Western immunoblotting); conditions: 24 h after GGA 200 mg/kg oral or vehicle; chelerythrine 5 mg/kg i.v. pretreatment, FIG. 9
Procedure: Male Sprague-Dawley rats (220-250 g) were used. GGA, as an emulsion with 5% gum arabic and 0.008% tocopherol, was given orally at a dose of 200 mg/kg. Rats were classified into 4 groups. FIG. 7 is a diagrammatic representation of experimental protocol. […] Twenty-four hours after oral administration of GGA or vehicle, rats were anesthetized (sodium pentobarbital, 50 mg/kg IP) and heparinized (500 IU/kg IP). Hearts were excised, immediately frozen in liquid nitrogen, and stored at −70° C. until use for Western blot analysis (n=4 for each group). […]
To analyze the expression of HSP70, the frozen heart samples were homogenized with SDS sample buffer (pH 6.8, 20% glycerol, 6% SDS, 0.12M Tris), centrifuged and boiled (Maloyan A, Palmon A, Horowitz M. Heat acclimation increases the basal HSP70 level and alters its production dynamics during heat stress. Am J Physiol. 1999; 276:R1506-R1515.). […] The total protein concentration of heart was quantified by the Bradford method (Bradford MM. A rapid and sensitive method for quantitation of microgram quantities of protein utilizing the principle of protein-dye binding. Anal. Biochem. 1976;72:248-254). […] The proteins were detected by ECL with exposure to Hyperfilm (Amersham Pharmacia). The amount of protein on the immunoblots was quantified using National Institutes of Health image software. […]

PKC (α, β, γ and ε) = assay: Translocation of PKC isoforms α, β, γ and ε in particulate and cytosolic heart fractions (Western immunoblotting); conditions: 24 h after GGA 200 mg/kg oral or vehicle; chelerythrine 5 mg/kg i.v. pretreatment, FIG. 10

Compound: CC(=O)CCC=C(C)CCC=C(C)CCC=C(C)CCC=C(C)C [GGA, 6, 10, 14, 18-tetramethyl-5,9, 13, 17-nonadecatetraen-2-one]
- PKCδ in the particulate fraction / particulate/cytosol ratio versus CNT group (PKCδ): significant increase
- released creatine kinase (CK) relative to ventricular weight (isolated perfused heart; 30-min reperfusion period after 20 min ischemia, FIG. 12): lower
- recovery of LVDP, LVEDP and dP/dt on reperfusion versus CNT group (isolated perfused heart; 20 min no-flow global ischemia, 30 min reperfusion, FIG. 11): greater
- amount of phosphorylated form of HSF1 in the nuclear fraction [1]: increased
- PKC isoforms α, β, γ and ε in cytosolic and particulate fractions (PKC (α, β, γ and ε)): not influenced
